Ten molecules from ChEMBL document CHEMBL1128907, “Platelet glycoprotein IIbIIIa receptor (GPIIbIIIa) antagonists derived from amidinoindoles” (Bioorg Med Chem Lett, 1996) can be followed below.

Square brackets hold non-standard residues; d marks the D form. Peptide text beside a SMILES is read from it. Pen = CC(C)(S)[C@H](N)C(=O)O; Mpa = O=C(O)CCS

The species entered for one experiment is Homo sapiens. The experiment is described as follows: Functional inhibition of the GPIIb-IIIa receptor was reflected as its ability to antagonize ADP induced platelet aggregation in human platelet-rich plasma. It is filed as organism-based.
Experiment [1] addresses Integrin alpha-IIb/beta-3 (Homo sapiens, UniProt P05106+P08514). The experiment is described as follows: Inhibition of platelet glycoprotein alpha IIb beta-3 integrin in ELISA. (In general: In an ELISA, binding on a coated surface is turned into a signal by an enzyme label.)

Integrin alpha-IIb/beta-3, sequence (P05106 27-788 limits assumed): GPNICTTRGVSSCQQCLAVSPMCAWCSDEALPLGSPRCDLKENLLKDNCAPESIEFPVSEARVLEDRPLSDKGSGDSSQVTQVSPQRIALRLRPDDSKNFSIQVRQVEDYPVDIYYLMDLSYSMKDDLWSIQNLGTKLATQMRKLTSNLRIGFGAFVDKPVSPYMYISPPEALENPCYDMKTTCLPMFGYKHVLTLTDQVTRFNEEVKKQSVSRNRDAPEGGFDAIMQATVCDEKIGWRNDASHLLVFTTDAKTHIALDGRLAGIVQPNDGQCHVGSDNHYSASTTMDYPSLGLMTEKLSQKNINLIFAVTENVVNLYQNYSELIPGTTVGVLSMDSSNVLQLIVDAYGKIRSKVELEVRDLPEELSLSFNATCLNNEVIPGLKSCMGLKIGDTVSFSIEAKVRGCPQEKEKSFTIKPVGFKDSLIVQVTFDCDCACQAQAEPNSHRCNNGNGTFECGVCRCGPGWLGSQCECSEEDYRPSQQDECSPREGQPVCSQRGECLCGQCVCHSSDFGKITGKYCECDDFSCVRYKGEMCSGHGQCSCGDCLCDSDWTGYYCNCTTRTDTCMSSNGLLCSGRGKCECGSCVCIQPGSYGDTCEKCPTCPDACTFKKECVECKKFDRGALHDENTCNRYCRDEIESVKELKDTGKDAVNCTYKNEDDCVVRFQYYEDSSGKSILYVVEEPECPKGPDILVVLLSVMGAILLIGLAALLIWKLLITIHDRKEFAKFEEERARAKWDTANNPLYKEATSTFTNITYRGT
Integrin alpha-IIb/beta-3, sequence (P08514 32-887 limits assumed): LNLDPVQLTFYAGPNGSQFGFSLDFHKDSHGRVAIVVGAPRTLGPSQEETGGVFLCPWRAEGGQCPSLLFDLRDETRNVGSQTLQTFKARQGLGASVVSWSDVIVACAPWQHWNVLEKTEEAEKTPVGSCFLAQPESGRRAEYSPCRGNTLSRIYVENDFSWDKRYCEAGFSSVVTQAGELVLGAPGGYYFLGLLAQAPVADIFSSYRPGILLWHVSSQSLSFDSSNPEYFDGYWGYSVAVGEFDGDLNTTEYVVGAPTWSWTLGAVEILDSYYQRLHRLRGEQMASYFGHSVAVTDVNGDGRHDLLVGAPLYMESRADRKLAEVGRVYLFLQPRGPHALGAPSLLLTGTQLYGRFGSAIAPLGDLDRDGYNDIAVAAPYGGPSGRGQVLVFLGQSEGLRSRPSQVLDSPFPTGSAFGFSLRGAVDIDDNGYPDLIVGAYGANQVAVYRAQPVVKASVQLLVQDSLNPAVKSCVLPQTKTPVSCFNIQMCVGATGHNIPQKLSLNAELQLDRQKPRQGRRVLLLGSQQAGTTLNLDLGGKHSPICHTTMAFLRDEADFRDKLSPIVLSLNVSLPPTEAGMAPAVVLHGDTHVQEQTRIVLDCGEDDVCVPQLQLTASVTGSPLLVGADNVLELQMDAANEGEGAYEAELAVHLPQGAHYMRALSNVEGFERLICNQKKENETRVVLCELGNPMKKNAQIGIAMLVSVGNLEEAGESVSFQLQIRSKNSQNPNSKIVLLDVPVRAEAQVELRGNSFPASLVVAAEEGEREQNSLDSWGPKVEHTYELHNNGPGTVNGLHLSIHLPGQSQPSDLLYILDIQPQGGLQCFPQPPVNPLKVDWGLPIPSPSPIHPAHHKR
Integrin alpha-IIb/beta-3, sequence (P08514 891-1039 limits assumed): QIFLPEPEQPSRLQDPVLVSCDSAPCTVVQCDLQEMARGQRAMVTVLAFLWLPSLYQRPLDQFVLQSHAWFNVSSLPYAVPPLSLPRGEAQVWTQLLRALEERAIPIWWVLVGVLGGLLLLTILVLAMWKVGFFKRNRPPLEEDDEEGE

As to `N=C(N)c1ccc2[nH]c(C(=O)NCCCCCCCC(=O)O)cc2c1`, in the experiment listed under Homo sapiens, the 50% inhibitory concentration (IC50) (as a rule, the concentration needed to halve the response being measured) was > 100000 nM.

In the case of `N=C(N)c1ccc2[nH]cc(C(=O)NCCCCCCCC(=O)O)c2c1`, the half-maximal inhibitory concentration (IC50) (in experiment [1]; in the experiment listed under Homo sapiens) was > 100000 nM in each case. In the case of `N=C(N)c1cccc(NCC(=O)NCCCCCCC(=O)O)c1`, the IC50 in experiment [1] was 64000 nM; in the experiment filed under Homo sapiens, > 100000 nM. `N=C(N)c1ccc(NCC(=O)NCCCCCCC(=O)O)cc1` came in with an IC50 in the experiment listed under Homo sapiens of 67000 nM. With `CC(C)(S)[C@H](NC(=O)[C@H](CCCN=C(N)N)NC(=O)[C@H](Cc1c[nH]c2ccccc12)NC(=O)[C@H](CC(=O)O)NC(=O)CNC(=O)[C@H](CCCN=C(N)N)NC(=O)CCS)C(N)=O` ([Mpa]RGDWR[Pen]-NH2), the IC50 in experiment [1] stood at 120 nM; in the experiment filed under Homo sapiens it was 280 nM.

`N=C(N)c1ccc2[nH]c(C(=O)NCCCCCCC(=O)O)cc2c1`: in the experiment filed under Homo sapiens, the IC50 came out at 2700 nM.

On to `N=C(N)c1ccc2[nH]c(C(=O)NCCCCCC(=O)O)cc2c1`, for which the results for the IC50 (in experiment [1]; in the experiment filed under Homo sapiens) were 30000 nM and > 100000 nM, respectively. With `N=C(N)c1ccc2cc(C(=O)NCCCCCCC(=O)O)[nH]c2c1`, the IC50 in experiment [1] worked out at 150 nM; in the experiment filed under Homo sapiens, 1300 nM. Taken in the same sequence, the figures for `N=C(N)c1ccc2c(C(=O)NCCCCCCC(=O)O)c[nH]c2c1` were 100 nM and 650 nM. Take `N=C(N)c1ccc2[nH]cc(C(=O)NCCCCCCC(=O)O)c2c1`: the IC50 (in experiment [1]; in the experiment listed under Homo sapiens) was > 100000 nM throughout.
